Source: patent US20140271920A1, “SKIN OINTMENT FORMULATION” (priority 2013, published 2014)

System: person's skin
Assay: Experimentation with ingredient concentrations in the ointment formulation applied to a person's skin
Type: in vivo, human
Details: Zinc Oxide amount lesser than 4.70% of the formulation
From the text: The ointment formulation includes an occlusive and nourishing ingredient in an amount configured to reduce moisture evaporation from and seal the skin. The specific occlusive and nourishing ingredient in the subject ointment formulation may be Lanolin. Lanolin is additionally selected for its ability to supply the skin with a majority of the 23 proteinogenic, i.e., protein-building, amino acids, which combine into peptide chains to form the building blocks of a vast array of proteins. In an exemplary 126.0 ml volume sample of the ointment formulation, the specific volume of the Lanolin ingredient was 103.53 ml, or 82.17%. Although Lanolin made up 82.17% of the exemplary sample, the allowable range of the Lanolin ingredient in the ointment formulation is approximately 74-85%.
The ointment formulation having the specific disclosed volume of Lanolin is for a moderate to severe condition of the skin. Although the amount of Lanolin may be increased for more severe conditions, the disclosed specific concentration of 82.17% is near the maximum that may be used while maintaining the necessary amounts of the other ingredients. Accordingly, as the volume of Lanolin is adjusted for severity of the particular skin condition, the amounts of other ingredients to be described with specificity below would have to be adjusted accordingly. […]

[O]=[Zn] [Zinc Oxide]
effectiveness: has not shown to be effective
